One compound from US20120258481A1, “CROSS-LINKING ATP ANALOGS” (WAYNE STATE UNIVERSITY, priority 2011, published 2012) can be followed below.

One assay concerns the target T1, CK2 kinase (Homo sapiens, UniProt P68400).
T1 construct: purchased New England Biolabs (NEB)
Description: Kinase-catalyzed photocrosslinking with peptide substrate Rho-14, in-gel fluorescence. The format is biochemical. Particulars: Rho-14 200 μM, co-substrate 1.3 mM, 365 nm UV 2 hours at 30° C.

A further assay concerns the target T2, CK2 and α-casein (Homo sapiens, UniProt P68400).
T2 construct: purchased New England Biolabs (NEB)
Description: Kinase-catalyzed photocrosslinking with full-length α-casein, SDS-PAGE, coomassie and CK2 western blot. Particulars: α-casein 100 μM, co-substrate 1.3 mM, 365 nm UV; CK2 immunoblot. The format is biochemical. The procedure:
Having established phosphorylation-dependent crosslinking between kinase and peptide substrate, crosslinking with a full-length protein substrate was tested. The α-casein protein has been widely used as a model CK2 substrate in phosphoprotein analysis. Crosslinking was carried out by incubating a mixture of CK2 and α-casein with ATP-ArN3 in the presence of UV light. The products were separated by SDS-PAGE and analyzed by coomassie staining (FIG. 3a) and western blot analysis (FIG. 3b). […] Because phosphate transfer is required, a powerful feature of ATP-ArN3-mediated crosslinking is that a kinase substrate is necessarily present in the crosslinked product. Coupled with mass spectrometric analysis, phosphorylation-dependent kinase-substrate crosslinking can determine the sites of phosphorylation in addition to the effector kinase. Importantly, the crosslinking approach is appropriate for studies with cell lysates or homogenized tissue samples since natural kinase and substrate are utilized. […] The reaction products were separated by SDS-PAGE and visualized by coomassie staining, silver staining, in-gel fluorescence imaging, or western blotting with a CK2 antibody (Millipore) after transfer onto a PVDF membrane (Immobilon-PSQ, Millipore). […] The reaction mixtures were incubated for 2 hours at 30° C. before quantitative MALDI-TOF MS analysis (Bruker Daltonics), as previously described. […]
(A western blot detects proteins with antibodies after separation by electrophoresis.)

T1 sequence (P68400 whole entry): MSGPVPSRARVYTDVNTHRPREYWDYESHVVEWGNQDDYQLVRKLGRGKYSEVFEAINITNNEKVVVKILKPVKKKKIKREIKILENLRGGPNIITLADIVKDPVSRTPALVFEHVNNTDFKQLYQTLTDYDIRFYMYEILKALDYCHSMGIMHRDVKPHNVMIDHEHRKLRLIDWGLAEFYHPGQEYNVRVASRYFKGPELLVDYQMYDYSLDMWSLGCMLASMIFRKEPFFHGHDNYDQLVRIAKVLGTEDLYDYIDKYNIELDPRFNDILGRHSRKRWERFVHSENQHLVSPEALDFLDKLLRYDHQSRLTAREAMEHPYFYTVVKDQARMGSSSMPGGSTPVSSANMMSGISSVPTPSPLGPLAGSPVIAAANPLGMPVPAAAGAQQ
T1 sequence (P67870 whole entry partner): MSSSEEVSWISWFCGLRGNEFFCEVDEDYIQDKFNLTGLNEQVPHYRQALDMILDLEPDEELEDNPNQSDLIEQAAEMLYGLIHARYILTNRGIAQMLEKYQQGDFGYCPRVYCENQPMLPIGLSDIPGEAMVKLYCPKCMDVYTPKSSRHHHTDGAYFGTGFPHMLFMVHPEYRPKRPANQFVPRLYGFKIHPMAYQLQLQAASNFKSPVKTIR
T2 sequence (P68400 whole entry): as the sequence (P68400 whole entry) above
T2 sequence (P67870 whole entry partner): as the sequence (P67870 whole entry partner) above
Description for CK2 kinase: Crosslinking was tested by incubating CK2 kinase and ATP-ArN3 with rhodamine-labeled CK2 peptide substrate 14 (Rho-[sequence], Rho-14). Simultaneously, the reaction mixture was irradiated with 365 nm light to afford a covalent crosslink (FIG. 1c). If kinase-substrate crosslinking occurred, the kinase was expected to become fluorescently labeled, which would be visualized by gel electrophoresis. […] As a final critical control, the crosslinked product was treated with acid to cleave the phosphoramidate bond bridging the peptide and kinase (FIG. 1c).
Photocrosslinking was initiated by irradiating with a handheld UV lamp at 365 nm for 2 hours at 30° C. The phosphoramidate bond in the crosslinked products was cleaved by adding trifluoroacetic acid (TFA) to a final concentration of 50% and incubating at 16° C. for 3 hours. The reaction products were separated by SDS-PAGE and visualized by coomassie staining, silver staining, in-gel fluorescence imaging, or western blotting with a CK2 antibody (Millipore) after transfer onto a PVDF membrane (Immobilon-PSQ, Millipore).
For the photocrosslinking experiments, CK2 (50 units/μL, 0.7 μM) was incubated with either Rho-14 (200 μM,) or full length α-casein (100 μM, Sigma), while Abl (20 units/μL, 44.4 nM) was incubated with ROX-13 (200 μM). All reactions also contained ATP or ATP-ArN3 (1.3 mM) and the manufacturers' kinase buffer.

Take `Nc1ncnc2c1ncn2[C@@H]1O[C@H](COP(=O)(O)OP(=O)(O)OP(=O)(O)O)[C@@H](O)[C@H]1O` [ATP, Adenosine 5′-triphosphate]: on CK2 kinase, the “fluorophore labeling of CK2 (kinase-substrate crosslinking)” value was “no fluorescence labeling was observed”. In addition, at CK2 and α-casein, the “CK2-α-casein crosslinked complex (68 kDa) formation” value is given as “crosslinked complex was absent”.
